Measured values published in patent publication EP0981349B1, “5-ALPHA-PREGNAN-3-BETA-OL-20-ONE SULFATE FOR THE TREATMENT OF TUMOURS AND CNS DISEASES” (Wyeth, priority 1997, dated 1998).
pEC50: −log10 of the molar value. Structures can show the parent of a compound that is named as a salt.

What was measured:
[1] = test system: potassium channel currents; assay: Whole cell recording of potassium currents from cultured hippocampal neurons; type: cell-based; conditions: 2 µM, p = 0.0006
Procedure: (§1) Briefly, the following procedure was used.
(§2) Whole cell recording techniques were used to record calcium and potassium currents from cultured hippocampal neurons. The compounds to be evaluated were made fresh each day in a 400 µM ethanol stock solution. The test compounds were diluted in saline to obtain a final concentration of 2 µM. The amplitude of calcium or potassium currents in control, test compound, and washout solutions was measured from at least 10 current traces for each condition. To compensate for rundown of the calcium current with time, control and washout currents were averaged. The current amplitude with drug was divided by the averaged control and washout current to determine the percent change. The means, standard deviations and errors for each test compound were calculated and significance from control was determined using the paired T-Test.

[2] = test system: calcium channel currents; assay: Whole cell recording of calcium currents from cultured hippocampal neurons; type: cell-based; conditions: 2 µM, p = 0.044
Procedure: as §1, §2

[3] = target: T1, progesterone receptors (Homo sapiens, UniProt P06401); assay: Stimulation of alkaline phosphatase enzyme activity in T47D cells (progestational activity)
T1 sequence (P06401 1-933): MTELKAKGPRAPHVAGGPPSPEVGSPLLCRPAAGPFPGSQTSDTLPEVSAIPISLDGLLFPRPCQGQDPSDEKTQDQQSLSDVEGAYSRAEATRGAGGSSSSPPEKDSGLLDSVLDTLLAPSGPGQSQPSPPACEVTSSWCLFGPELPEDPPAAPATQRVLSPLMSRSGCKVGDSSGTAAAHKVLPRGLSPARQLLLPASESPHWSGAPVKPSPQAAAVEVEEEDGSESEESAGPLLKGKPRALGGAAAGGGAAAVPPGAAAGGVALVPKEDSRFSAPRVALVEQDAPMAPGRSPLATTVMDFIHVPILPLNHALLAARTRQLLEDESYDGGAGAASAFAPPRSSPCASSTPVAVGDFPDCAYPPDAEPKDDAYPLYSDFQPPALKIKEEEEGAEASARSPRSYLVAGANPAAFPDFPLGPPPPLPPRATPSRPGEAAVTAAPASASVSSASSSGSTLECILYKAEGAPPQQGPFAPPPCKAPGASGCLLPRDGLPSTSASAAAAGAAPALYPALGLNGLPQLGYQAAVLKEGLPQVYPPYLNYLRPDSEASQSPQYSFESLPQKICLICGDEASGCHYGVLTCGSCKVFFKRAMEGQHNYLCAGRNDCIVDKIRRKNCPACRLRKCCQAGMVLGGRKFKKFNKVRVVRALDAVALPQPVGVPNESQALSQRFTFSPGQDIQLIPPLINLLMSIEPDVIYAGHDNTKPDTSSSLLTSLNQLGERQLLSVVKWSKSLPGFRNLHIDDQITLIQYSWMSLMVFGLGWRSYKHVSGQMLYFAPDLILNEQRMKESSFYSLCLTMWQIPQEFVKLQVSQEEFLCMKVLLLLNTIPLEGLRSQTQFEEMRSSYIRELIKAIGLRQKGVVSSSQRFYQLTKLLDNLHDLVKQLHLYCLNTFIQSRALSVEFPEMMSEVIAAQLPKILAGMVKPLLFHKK
Procedure: The progestational activity of a representative compound of this invention (5α-pregnan-3β-ol-20-one 3-sulfate ester sodium salt) was evaluated in an in vitro standard pharmacological test procedure.
In this test procedure, the progestational activity of a compound is quantified based on its stimulation of alkaline phosphatase enzyme activity in T47D cells, a human breast cancer cell line which expresses high levels of progesterone receptors. This is a well established test procedure in which both the progestin receptors and the response stimulated by activated progestin receptors are endogenous to the cells. Cells are pre-conditioned in low serum medium for one day and then treated with test compounds. Alkaline phosphatase activity is measured 24 hr after treatment.

| fold induction of alkaline phosphatase ([3]; t47d cells, 24 h) | Structure (SMILES) | increased potassium channel currents versus control [1] | Calcium channel currents decrease versus control [2] | pEC50 [3] |
| --- | --- | --- | --- | --- |
|  | CC(=O)[C@H]1CC[C@H]2[C@@H]3CC[C@H]4C[C@@H](OS(=O)(=O)O)CC[C@]4(C)[C@H]3CC[C@]12C [5α-pregnan-3β-ol-20-one 3-sulfate ester sodium salt] | 21.76 ± 2.40% | 4.64 ± 1.64% | 5.30 |
| 30 - 60 fold | CC(=O)O[C@]1(C(C)=O)CC[C@H]2[C@@H]3C[C@H](C)C4=CC(=O)CC[C@]4(C)[C@H]3CC[C@@]21C [medroxyprogesterone acetate, reference compound] |  |  |  |
